Results reported in patent US20130316374A1, “BREAST CANCER DIAGNOSTICS” (IMBA - INSTITUT FUR MOLEKULARE BIOTECHNOLOGIE GMBH, priority 2010, published 2013).

Columns and labels:
RANKL = RANKL expression in purified mammary epithelial cells (qRT-PCR, Western blot); assay type: in vivo, mouse; conditions: nulliparous wild type females, 3 days after implantation/oral gavage
Procedure: a,b, MPA induces RANKL expression in mammary epithelial cells. Nulliparous wild type females were treated with oral gavage of DMBA or oil vehicle, s.c. implanted with slow-release MPA pellets, or treated with sham surgery. a, RANKL mRNA was determined in purified mammary epithelial cells by qRT-PCR 3 days after implantation/oral gavage. Data are shown as fold change compared to sham treatment+/−sem. n=3 mice per group. b, Expression of soluble (s) RANKL protein (19 kDa) was assayed on cell lysates from purified mammary epithelial cells by Western blot 3 days after treatment with oil vehicle, DMBA, MPA, or sham surgery. β-actin is shown as a loading control. […] Data are shown as percentage of tumor-free mice after the last DMBA challenge. No significant difference was found between the Cre+ and the Cre− control groups. Median tumor onset for Cre^+ controls was 9 days, for Cre^− controls 11 days, and for RANK^Δmam females 30 days after the last DMBA treatment. d, Representative Southern blot of MPA/DMBA-induced mammary tumors derived from RANK^flox/+; MMTV-Cre+ and RANK^flox/Δ; MMTV-Cre+ (RANK^Δmam) females. […]
Total RNA of tumors was prepared using the RNeasy Mini Kit (Qiagen), according to the manufacturer's instructions. Total RNA (2 μg) was subjected to quantitative (q)RT-PCR analysis. […]

[1] = system: human SKBR3 breast cancer cells; experiment: Soft-Agar Colony Formation Assay; assay type: cell-based; conditions: OPG (1 μg/ml) with RANKL (1 μg/ml)
Procedure: a, Western blotting for phosphorylated (P) IKKα, total IKKα, phosphorylated (P) p65 NFκB, total p65 NFκB, phosphorylated (P) IκBα, and total IκBα in isolated primary mouse mammary gland epithelial cells (MECs) in response to RANKL stimulation (1 μg/ml). […] is shown as loading control. b, Western blotting for IKKα, IKKβ, IKKγ, phosphorylated (P) p65 NFκB, total p65 NFκB, phosphorylated (P) IκBα, and total IκBα in pooled late stage mammary adenocarconimas (n=4 for each lane) that developed in control, RANK^Δmam, and IKKα^Δmam females. β-actin is shown as loading control c, Expression of RANK, CyclinD1, and p21 mRNA in late stage mammary adenocacinomas that developed in control, RANK^Δmam, and IKKα^Δmam females. Expression was determined by qRT-PCR. Data are mean values+/−sem. n=4 per group. d, Soft-Agar Colony Formation Assay. Growth of human SKBR3 breast cancer cells in soft agar in response to stimulation with RANKL (1 μg/ml) or EGF (100 ng/ml). […] Apoptosis was detected by immunostaining for active Caspase 3. f, Apoptotic nuclei of epithelial cells (arrows) are shown for representative mammary gland sections. Magnifications ×40. g, Quantification of mammary epithelial apoptosis. A minimum of 5000 nuclei was counted for each mouse. […]

Molecule | RANKL mRNA and protein expression in mammary epithelial cells (RANKL) | RANKL-induced colony formation in soft agar [1]
Cc1c2ccccc2c(C)c2c1ccc1ccccc12 [DMBA, dimethylbenz[a]anthracene] | not | 
OPG: secreted decoy receptor that can reduce the RANKL activity (protein, UniProt O00300 22-401, looked up) Tumor necrosis factor …: ETFPPKYLHYDEETSHQLLCDKCPPGTYLKQHCTAKWKTVCAPCPDHYYTDSWHTSDECLYCSPVCKELQYVKQECNRTHNRVCECKEGRYLEIEFCLKHRSCPPGFGVVQAGTPERNTVCKRCPDGFFSNETSSKAPCRKHTNCSVFGLLLTQKGNATHDNICSGNSESTQKCGIDVTLCEEAFFRFAVPTKFTPNWLSVLVDNLPGTKVNAESVERIKRQHSSQEQTFQLLKLWKHQNKDQDIVKKIIQDIDLCENSVQRHIGHANLTFEQLRSLMESLPGKKVGAEDIEKTIKACKPSDQILKLLSLWRIKNGDQDTLKGLMHALKHSKTYHFPKTVTQSLKKTIRFLHSFTMYKLYQKLFLEMIGNQVQSVKISCL |  | prevented
